For assay [1], the target named is human FLAP (Homo sapiens (Human), UniProt P20292). The assay can be described thus: FLAP binding assay (HTRF format). The note with it: human FLAP-containing Sf-9 membranes, wild type; average of runs. How it is done: (§1) The ability of the compounds of the present invention to treat a FLAP-mediated disease and/or disorder, or associated symptoms or complications thereof, was determined using the following procedures. Binding assay data represent the average value obtained from two different assay plates, with samples run in duplicate on each plate. Human whole blood assay data represent a single replicate on an assay plate using whole blood from at least one healthy donor.
Chain of human FLAP (P20292 whole entry): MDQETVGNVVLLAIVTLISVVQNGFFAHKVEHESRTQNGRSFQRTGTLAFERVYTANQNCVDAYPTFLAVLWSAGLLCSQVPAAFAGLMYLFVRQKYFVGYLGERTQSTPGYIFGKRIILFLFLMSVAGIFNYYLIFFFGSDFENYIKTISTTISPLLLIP
The assay below is used to test the modulatory activity of compounds against FLAP. Human and mouse FLAP-encoding DNA was amplified by polymerase chain reaction and cloned into pFastBac1 (Invitrogen) with a NH2-terminal 6-His tag for expression in Spodoptera frugiperda (Sf-9) cells. FLAP-containing membranes were prepared as was a FITC-labeled FLAP modulator (3-(3-(tert-butylthio)-1-(4-chlorobenzyl)-5-(quinolin-2-ylmethoxy)-1H-indol-2-yl)-2,2-dimethylpropanoic acid). The FLAP binding assay is performed in HTRF format (homogeneous time resolved fluorescence). […] The reaction is allowed to proceed for two hours after which the plate is read on an Envision plate reader in HTRF mode. Data are expressed as a HTRF ratio.
For human FLAP binding assays, data are analyzed with 3DX Explorer software. […] For analysis, data from multiple runs are averaged and each compound may be tested in 2 to 20 runs. Each run comprises two plates and each plate includes duplicates. Data from each plate is averaged and data are imported into 3DX. The data from multiple runs are aggregated as the average of duplicates of the calculated ratios in order to calculate Ki and IC50 values. Numbers in parentheses are the number of runs for the assay.
A general note: In TR-FRET formats the signal depends on donor and acceptor labels being close together.

In assay [2] the test system is leukotriene pathway in human whole blood. Briefly: Human whole blood assay (LTB4, A23187-stimulated). Type of assay: cell-based. The note with it: Homo sapiens, 0.5 h, human whole blood diluted 1:1 in RPMI, calcium ionophore A23187 7 μg/mL, 30 min. How it is done:
as §1
An in vitro cellular assay was performed using human whole blood collected in heparin-containing tubes, which was used to test the ability of compounds to modulate the leukotriene pathway in human whole blood. The blood was diluted 1:1 in RPMI medium, pre-incubated for 15 min at 37° Celsius with test compounds at various concentrations, and then stimulated with calcium ionophore, A23187 (7 μg/mL), for 30 min at 37° Celsius. The samples were then centrifuged and plasma was removed. The plasma was diluted in assay buffer and LTB4 levels were measured using a commercial kit (Enzo Life Sciences). The concentration of each compound that was required for half-maximal inhibition (modulation) of […] (IC50) was calculated by a 4-parameter equation using the program GraphPad Prism (GraphPad software). For analysis, data are imported into 3DX and aggregated as the average of duplicates of the calculated ratios in order to calculate Ki and IC50 values. Numbers in parentheses are the number of runs for the assay.

Usually Ki stands for the dissociation constant of the complex between target and ligand, obtained from inhibition or displacement. Broadly, the IC50 is the concentration that gives 50% inhibition.

With `CCC(CC)(Cc1nc2ccc(OCc3ncc(C)cc3F)cc2n1Cc1ccc(N2CCC(C(F)(F)F)CC2)cc1)C(=O)O` [Example 194, 2-Ethyl-2-[(6-[(3-fluoro-5-methylpyridin-2-yl)methoxy]-1-{4-[4-(trifluoromethyl)piperidin-1-yl]benzyl}-1H-benzimidazol-2-yl)methyl]butanoic acid], the Ki in assay [1] was 0.0057 µM. Besides, the IC50 in assay [2] was found to be 0.58 µM.

In assay [1], `Cn1ccc(COc2ccc3nc(C4CCCC[C@H]4C(=O)O)n(Cc4cccc(N5CCCCC5)c4)c3c2)n1` (mixture of isomers) [Example 204, racemic cis-2-{6-[(1-Methyl-1H-pyrazol-3-yl)methoxy]-1-(3-piperidin-1-ylbenzyl)-1H-benzimidazol-2-yl}cyclohexanecarboxylic acid] came in with a Ki of 0.031 µM. The IC50 in assay [2] was found to be 0.24 µM.

The values are drawn from patent US9695149B2, “1,2,6-substituted benzimidazoles as flap modulators” (JANSSEN PHARMACEUTICA NV, priority 2013, dated 2017).
